Data taken from US6906006B1, “N-arly-substituted nitrogen-containing heterocycles, processes and novel intermediates for their preparation, and their use as herbicides and plant growth regulators” (Bayer Aktiengesellschaft, priority 1988, dated 2005).

Tests used:
test plants [1] = assay: Pre-emergence test (Use Example A, formula (I) compounds); format: in vivo; conditions: damage rated after three weeks, comparison substance 1-(2-chloro-4-trifluoromethylphenyl)-5-methyl-4-nitropyrazole
Protocol: • Solvent: 5 parts by weight of acetone • Emulsifier: 1 part by weight of alkylaryl polyglycol ether
(§1) To produce a suitable preparation of active compound, 1 part by weight of active compound is mixed with the stated amount of solvent, the stated amount of emulsifier is added and the concentrate is diluted with water to the desired concentration.
Seeds of the test plants are sown in normal soil and, after 24 hours, watered with the preparation of active compound. It is expedient to keep constant the amount of water per unit area. The concentration of the active compound in the preparation is of no importance, only the amount of active compound applied per unit area being decisive. After three weeks, the degree of damage to the plants is rated in % damage in comparison to the development of the untreated control. The figures denote: • 0%=no action (like untreated control) • 100% total destruction

test plants [2] = assay: Post-emergence test (Use Example B, formula (I) compounds); format: in vivo; conditions: sprayed in 2,000 l of water/ha, damage rated after three weeks, comparison substance 1-(2-chloro-4-trifluoromethylphenyl)-5-methyl-4-nitropyrazole
Protocol: • Solvents 5 parts by weight of acetone • Emulsifier: 1 part by weight of alkylaryl polyglycol ether
as §1
Test plants which have a height of 5-15 cm are sprayed with the preparation of the active compound in such a way as to apply the particular amounts of active compound desired per unit area. The concentration of the spray liquor is so chosen that the particular amounts of active compound desired are applied in 2,000 l of water/ha. After three weeks, the degree of damage to the plants is rated in % damage in comparison to the development of the untreated control. The figures denote: • 0%=no action (like untreated control) • 100%=total destruction

| Structure (SMILES) | effectiveness and crop plant selectivity compared with the prior art (test plants [1]) | effectiveness and crop plant selectivity compared with the prior art (test plants [2]) |
| --- | --- | --- |
| CCOCCOc1cc(-n2nc3c(c2C)CCCC3)c(F)cc1C#N [Example 10] | clearly superior to the prior art | clearly superior effectiveness as well as crop plant selectivity |
| Cc1c2c(nn1-c1cc(SC(C)C)c(C#N)cc1F)CCCC2 [Example 9, 4-(5-methyl-3,4-tetramethylene-1-pyrazolyl)-5-fluoro-2-isopropylthiobenzonitrile] |  | clearly superior effectiveness as well as crop plant selectivity |
